# Data as given in publication PMC11207729, “Unveiling Anticancer Potential of COX-2 and 5-LOX Inhibitors: Cytotoxicity, Radiosensitization Potential and Antimigratory Activity against Colorectal and Pancreatic Carcinoma” (Pharmaceutics, 2024).
# “And” between values parts separate entries of the source, which are not always exact repeats. Equal values may be shown once.
# Test system: HCT 116 cells
# Assay: MTT cytotoxicity assay, HCT 116
# Assay type: cell-based, human
# Details: Homo sapiens, HCT-116; MTT, 72 h after treatment, mean ± SEM
# Method: (§1) SW620 cells were cultured in Dulbecco’s Modified Eagle’s medium (DMEM, Sigma-Aldrich Chemie GmbH, Steinheim, Germany) and supplemented in the same manner as the previously mentioned cell lines. Cells were grown in cell culture flasks T25 (Sarstedt AG & Co., Nümbrecht, Germany) at appropriate cell densities in the culture medium prior to exposure to treatments. Stock solutions of each compound, prepared in DMSO, were diluted in the culture medium to obtain the appropriate final concentrations.
# (§2) The viability of the control and cells treated with the tested compounds was determined by MTT assay. Cells were seeded in 96-well plates at a density of 2000 cells/well, allowed to attach overnight, and then treated with rising concentrations of testing compounds. The ability of viable cells to reduce 3-(4,5-dimethylthiazol-2-yl)-2,5-diphenyltetrazolium bromide into blue-purple formazan crystals, was measured 72 h after the treatments. Namely, l mg/mL of MTT reagent (Sigma-Aldrich Chemie GmbH, Steinheim, Germany) was added to each well and incubated for an additional 4 h. Finally, upon removal of the medium containing MTT, 200 µL of DMSO was added to each well.
row,SMILES,IC50 [µM]
1,COc1ccc2c(c1)c(CNC(=O)NO)c(C)n2C(=O)c1ccc(Cl)cc1 [Compound 1],4.97 ± 0.78
2,CC(NC(=O)NO)c1ccc(-c2ccccc2)c(F)c1 (stereo not drawn) [Compound 2],64.8 ± 2.76
3,COC(=O)C(Cc1cnc[nH]1)NC(=O)c1cc(C(C)(C)C)c(O)c(C(C)(C)C)c1 (stereo not drawn) [Compound 4],29.5 ± 5.23
4,COC(=O)CNC(=O)c1cc(C(C)(C)C)c(O)c(C(C)(C)C)c1 [Compound 5],51.7 ± 1.78
5,CCOc1ccccc1NC(=O)N(C)C [Compound 8],> 100
6,CN(C)C(=O)Nc1ccccc1C(=O)O [Compound 9],> 100
7,CCOc1ccccc1NC(=O)Nc1ccc([N+](=O)[O-])cc1 [Compound 10],9.3 ± 0.38

# Same assay, conditions: MRC-5 / HCT 116, in brackets
row,SMILES,"Selectivity index (IC50 normal cell line/IC50 cancer cell lines), HCT 116"
1,COc1ccc2c(c1)c(CNC(=O)NO)c(C)n2C(=O)c1ccc(Cl)cc1 [Compound 1],1.95
2,CC(NC(=O)NO)c1ccc(-c2ccccc2)c(F)c1 (stereo not drawn) [Compound 2],1.07
3,COC(=O)C(Cc1cnc[nH]1)NC(=O)c1cc(C(C)(C)C)c(O)c(C(C)(C)C)c1 (stereo not drawn) [Compound 4],1.20
4,COC(=O)CNC(=O)c1cc(C(C)(C)C)c(O)c(C(C)(C)C)c1 [Compound 5],> 1.94
5,CCOc1ccccc1NC(=O)Nc1ccc([N+](=O)[O-])cc1 [Compound 10],2.01

# Test system: BxPC-3 cells
# Assay: MTT cytotoxicity assay, BxPC-3
# Assay type: cell-based, human
# Details: Homo sapiens, BXPC-3, 72 h, MTT, 72 h after treatment, mean ± SEM
# Method: as §1, §2
row,SMILES,IC50 [µM]
1,COc1ccc2c(c1)c(CNC(=O)NO)c(C)n2C(=O)c1ccc(Cl)cc1 [Compound 1],12.8 ± 1.11
2,CC(NC(=O)NO)c1ccc(-c2ccccc2)c(F)c1 (stereo not drawn) [Compound 2],48.7 ± 4.6
3,COC(=O)C(Cc1cnc[nH]1)NC(=O)c1cc(C(C)(C)C)c(O)c(C(C)(C)C)c1 (stereo not drawn) [Compound 4],24.7 ± 2.01
4,COC(=O)CNC(=O)c1cc(C(C)(C)C)c(O)c(C(C)(C)C)c1 [Compound 5],41.2 ± 2.88
5,CCOc1ccccc1NC(=O)N(C)C [Compound 8],> 100
6,CN(C)C(=O)Nc1ccccc1C(=O)O [Compound 9],> 100
7,CCOc1ccccc1NC(=O)Nc1ccc([N+](=O)[O-])cc1 [Compound 10],6.05 ± 1.68

# Same assay, conditions: MRC-5 / BxPC-3, in brackets
row,SMILES,"Selectivity index (IC50 normal cell line/IC50 cancer cell lines), BxPC-3"
1,COc1ccc2c(c1)c(CNC(=O)NO)c(C)n2C(=O)c1ccc(Cl)cc1 [Compound 1],0.76
2,CC(NC(=O)NO)c1ccc(-c2ccccc2)c(F)c1 (stereo not drawn) [Compound 2],1.42
3,COC(=O)C(Cc1cnc[nH]1)NC(=O)c1cc(C(C)(C)C)c(O)c(C(C)(C)C)c1 (stereo not drawn) [Compound 4],1.43
4,COC(=O)CNC(=O)c1cc(C(C)(C)C)c(O)c(C(C)(C)C)c1 [Compound 5],> 2.43
5,CCOc1ccccc1NC(=O)Nc1ccc([N+](=O)[O-])cc1 [Compound 10],3.09

# Test system: HT-29 cells
# Assay: MTT cytotoxicity assay, HT-29
# Assay type: cell-based, human
# Details: Homo sapiens, HT-29; MTT, 72 h after treatment, mean ± SEM
# Method: as §1, §2
row,SMILES,IC50 [µM]
1,COc1ccc2c(c1)c(CNC(=O)NO)c(C)n2C(=O)c1ccc(Cl)cc1 [Compound 1],9.78 ± 0.68
2,CC(NC(=O)NO)c1ccc(-c2ccccc2)c(F)c1 (stereo not drawn) [Compound 2],82.4 ± 4.25
3,COC(=O)C(Cc1cnc[nH]1)NC(=O)c1cc(C(C)(C)C)c(O)c(C(C)(C)C)c1 (stereo not drawn) [Compound 4],42.3 ± 2.57
4,COC(=O)CNC(=O)c1cc(C(C)(C)C)c(O)c(C(C)(C)C)c1 [Compound 5],81.6 ± 2.77
5,CCOc1ccccc1NC(=O)N(C)C [Compound 8],> 100
6,CN(C)C(=O)Nc1ccccc1C(=O)O [Compound 9],> 100
7,CCOc1ccccc1NC(=O)Nc1ccc([N+](=O)[O-])cc1 [Compound 10],7.08 ± 0.3

# Same assay, conditions: MRC-5 / HT-29, in brackets
row,SMILES,"Selectivity index (IC50 normal cell line/IC50 cancer cell lines), HT-29"
1,COc1ccc2c(c1)c(CNC(=O)NO)c(C)n2C(=O)c1ccc(Cl)cc1 [Compound 1],0.99
2,CC(NC(=O)NO)c1ccc(-c2ccccc2)c(F)c1 (stereo not drawn) [Compound 2],0.84
3,COC(=O)C(Cc1cnc[nH]1)NC(=O)c1cc(C(C)(C)C)c(O)c(C(C)(C)C)c1 (stereo not drawn) [Compound 4],0.84
4,COC(=O)CNC(=O)c1cc(C(C)(C)C)c(O)c(C(C)(C)C)c1 [Compound 5],> 1.22
5,CCOc1ccccc1NC(=O)Nc1ccc([N+](=O)[O-])cc1 [Compound 10],2.64

# Test system: MRC-5 cells
# Assay: MTT cytotoxicity assay, MRC-5 normal fibroblasts
# Assay type: cell-based, human
# Details: Homo sapiens, MRC5, 72 h, MTT, 72 h after treatment, mean ± SEM; healthy cell line
row,SMILES,IC50 [µM]
1,COc1ccc2c(c1)c(CNC(=O)NO)c(C)n2C(=O)c1ccc(Cl)cc1 [Compound 1],9.68 ± 2.34
2,CC(NC(=O)NO)c1ccc(-c2ccccc2)c(F)c1 (stereo not drawn) [Compound 2],69.1 ± 3.07
3,COC(=O)C(Cc1cnc[nH]1)NC(=O)c1cc(C(C)(C)C)c(O)c(C(C)(C)C)c1 (stereo not drawn) [Compound 4],35.4 ± 4.14
4,COC(=O)CNC(=O)c1cc(C(C)(C)C)c(O)c(C(C)(C)C)c1 [Compound 5],> 100
5,CCOc1ccccc1NC(=O)N(C)C [Compound 8],> 100
6,CN(C)C(=O)Nc1ccccc1C(=O)O [Compound 9],> 100
7,CCOc1ccccc1NC(=O)Nc1ccc([N+](=O)[O-])cc1 [Compound 10],18.7 ± 0.98

# Same assay, conditions: MRC-5 / MRC-5 (reference value), in brackets
row,SMILES,"Selectivity index, MRC-5"
1,COc1ccc2c(c1)c(CNC(=O)NO)c(C)n2C(=O)c1ccc(Cl)cc1 [Compound 1],1
2,CC(NC(=O)NO)c1ccc(-c2ccccc2)c(F)c1 (stereo not drawn) [Compound 2],1
3,COC(=O)C(Cc1cnc[nH]1)NC(=O)c1cc(C(C)(C)C)c(O)c(C(C)(C)C)c1 (stereo not drawn) [Compound 4],1
4,CCOc1ccccc1NC(=O)Nc1ccc([N+](=O)[O-])cc1 [Compound 10],1

# Test system: SW620 cells
# Assay: Wound-healing assay
# Assay type: cell-based, human
# Details: 25 μM, SW620, 24 h relative to T0, mean ± SEM; control 17.87 ± 3.48
# Method: The migratory potential of SW620 cells (human colon carcinoma cell line) was evaluated by a wound-healing assay. Cells were seeded in density of 300,000 cells per well in 24-well tissue culture microplates and grown for 24 h in DMEM medium supplemented with 10% FBS, penicillin/streptomycin and L-glutamine at 37 °C in a humidified atmosphere containing 5% CO2. Upon reaching confluence, a uniform wound was scratched into a monolayer of each well with a sterile plastic 200 μL micropipette tip. After wounding, the medium was replaced and cells were further treated with 25 μM of compounds 1, 2, 3, and 5 for 24 h and 48 h. Wound closure was monitored by imaging cells at 4× magnification using the ImageXpress® Pico Automated Cell Imaging System (Molecular Devices®, San Jose, CA, USA) immediately (T0), and at 24 h (T24) and 48 h (T48) after wounding. The captured images were analyzed by ImageJ software v. 1.52p (U.S. National Institutes of Health, Bethesda, MD, USA) to measure the degree of closure of the wounded area. Independent experiments were performed three times.
row,SMILES,Relative Wound Closure (%) 24 h
1,COc1ccc2c(c1)c(CNC(=O)NO)c(C)n2C(=O)c1ccc(Cl)cc1 [Compound 1],3.20% and 3.20 ± 0.99%
2,CC(NC(=O)NO)c1ccc(-c2ccccc2)c(F)c1 (stereo not drawn) [Compound 2],7.47 ± 2.14%
3,COC(=O)CNC(=O)c1cc(C(C)(C)C)c(O)c(C(C)(C)C)c1 [Compound 5],7.12 ± 1.43%

# Same assay, conditions: 25 μM, SW620, 48 h relative to T0, mean ± SEM; control 24.51 ± 1.39
row,SMILES,Relative Wound Closure (%) 48 h
1,COc1ccc2c(c1)c(CNC(=O)NO)c(C)n2C(=O)c1ccc(Cl)cc1 [Compound 1],5.08% and 5.08 ± 2.46%
2,CC(NC(=O)NO)c1ccc(-c2ccccc2)c(F)c1 (stereo not drawn) [Compound 2],11.61 ± 3.06%
3,COC(=O)CNC(=O)c1cc(C(C)(C)C)c(O)c(C(C)(C)C)c1 [Compound 5],9.11 ± 0.27%

# Test system: SW620 cells
# Assay: Cytotoxicity in SW620 cells after 24 h treatment (Table S2)
# Assay type: cell-based
# Details: Homo sapiens, SW-620, read-out: IC50 (µM) following 24h treatment in SW620 cells
row,SMILES,IC50 [µM]
1,COc1ccc2c(c1)c(CNC(=O)NO)c(C)n2C(=O)c1ccc(Cl)cc1 [Compound 1],215 ± 4.9
2,CC(NC(=O)NO)c1ccc(-c2ccccc2)c(F)c1 (stereo not drawn) [Compound 2],386 ± 11.8
3,COC(=O)CNC(=O)c1cc(C(C)(C)C)c(O)c(C(C)(C)C)c1 [Compound 5],132 ± 3.5

# Test system: HT-29 cells
# Assay: SRB assay, compound plus γ-radiation, HT-29
# Assay type: cell-based, human
# Details: IC50 concentration 24 h before 2 Gy γ-radiation, SRB 72 h after irradiation
# Method: In the experiments involving irradiation, cells were irradiated at room temperature, in the vertical position with the cell monolayer facing ^60Co γ-rays (CIRUS-Cis Biointernational). The irradiation of samples was performed in Vinča Institute of Nuclear Sciences, Belgrade, Serbia. In all experiments, a clinically relevant radiation dose of 2 Gy with the dose rate of ~1 Gy/min was applied.
# For the evaluation of cell viability after treatments with radiation as well as after combined treatments, a sulforhodamine B (SRB) protein binding assay was used. This assay is based on the staining of cellular proteins. Maintaining conditions were identical to that of MTT assay. The cells were pretreated with IC50 concentrations of tested compounds for 24 h before irradiations. Following the 72 h post-irradiation incubation time under standard conditions (5% CO2, 37 °C) cells were fixed by protein precipitation with 10% trichloroacetic acid (TCA) at 4 °C for 1 h. Plates were rinsed with distillated water and stained with 0.4% SRB (Sigma-Aldrich Chemie GmbH, Steinheim, Germany) in 1% acetic acid, for 15 min at room temperature. Excess stain was removed by washing the wells in 1% acetic acid. After being rinsed, microwell plates were air dried until no staining moisture was visible. Bound dye was dissolved in 10 mM unbuffered Tris base (pH 10.5) for 5 min on a gyratory shaker. The absorbance of each well was measured using a microplate reader (Wallac VICTOR2 1420 Multilabel counter, PerkinElmer, Turku, Finland) at a test wavelength of 550 nm.
row,SMILES,"cell proliferation, combined treatment versus radiation alone, HT-29"
1,COC(=O)CNC(=O)c1cc(C(C)(C)C)c(O)c(C(C)(C)C)c1 [Compound 5],significantly inactivated HT-29 cells
